Our source for the IC50 values is BindingDB's records for patent US20260028352 (Suzhou Langrui Biopharmaceutical, 2026).

Experiment [1] has as its target High affinity nerve growth factor receptor (Homo sapiens, UniProt P04629). The experiment is described as follows: Inhibitory Activity of Compounds Against TRKA and TRKA(F589L) Kinases. How it is done: (§1) Kinase Assay Process: 1× Kinase buffer was prepared. […] 10 μL of the 2.5× final concentration kinase solution was added to the compound wells and the positive control wells, and 10 μL of 1× Kinase buffer was added to the negative control wells. The plate was centrifuged at 1000 rpm for 30 seconds, vortexed for mixing, and then incubated at room temperature for 10 minutes. A mixture of 5/3× final concentration of ATP and Kinase Substrate 22 was prepared using 1× Kinase buffer. 15 μL of the mixture of the 5/3× final concentration ATP and the substrate was added to initiate the reaction, the 384-well plate was centrifuged at 1000 rpm for 30 seconds, vortexed for mixing, and incubated at room temperature for the required time. 30 μL of the termination solution was added to stop the kinase reaction, the plate was centrifuged at 1000 rpm for 30 seconds, and vortexed for mixing. The conversion rate was measured using the Caliper EZ Reader.

Experiment [2] addresses High affinity nerve growth factor receptor NTRK1 [F589L] (UniProt P04629, F589L). The experiment is described as above. On the procedure:
as §1

Chain of High affinity nerve growth factor receptor (P04629 whole entry): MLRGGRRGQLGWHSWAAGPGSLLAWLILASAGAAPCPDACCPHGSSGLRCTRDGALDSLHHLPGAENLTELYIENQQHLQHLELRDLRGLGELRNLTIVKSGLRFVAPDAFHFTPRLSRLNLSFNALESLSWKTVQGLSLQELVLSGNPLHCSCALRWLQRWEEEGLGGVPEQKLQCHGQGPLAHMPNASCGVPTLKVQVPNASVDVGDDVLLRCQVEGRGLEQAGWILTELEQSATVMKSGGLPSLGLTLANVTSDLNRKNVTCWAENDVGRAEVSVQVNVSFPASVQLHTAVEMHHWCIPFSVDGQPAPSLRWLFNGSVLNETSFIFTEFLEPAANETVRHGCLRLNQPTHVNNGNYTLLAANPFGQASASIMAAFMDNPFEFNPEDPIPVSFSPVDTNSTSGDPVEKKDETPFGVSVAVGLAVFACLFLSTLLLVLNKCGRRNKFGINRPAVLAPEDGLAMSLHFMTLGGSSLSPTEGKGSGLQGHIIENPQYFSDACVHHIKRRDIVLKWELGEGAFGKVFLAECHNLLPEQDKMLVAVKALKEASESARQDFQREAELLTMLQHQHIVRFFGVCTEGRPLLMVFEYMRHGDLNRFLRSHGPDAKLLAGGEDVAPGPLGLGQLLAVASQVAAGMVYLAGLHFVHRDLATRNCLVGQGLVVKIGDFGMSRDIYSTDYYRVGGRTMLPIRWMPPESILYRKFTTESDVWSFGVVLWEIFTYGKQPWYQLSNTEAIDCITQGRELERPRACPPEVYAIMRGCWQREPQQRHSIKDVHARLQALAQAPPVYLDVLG
Chain of High affinity nerve growth factor receptor NTRK1 [F589L] (P04629 33-796 F589L limits assumed): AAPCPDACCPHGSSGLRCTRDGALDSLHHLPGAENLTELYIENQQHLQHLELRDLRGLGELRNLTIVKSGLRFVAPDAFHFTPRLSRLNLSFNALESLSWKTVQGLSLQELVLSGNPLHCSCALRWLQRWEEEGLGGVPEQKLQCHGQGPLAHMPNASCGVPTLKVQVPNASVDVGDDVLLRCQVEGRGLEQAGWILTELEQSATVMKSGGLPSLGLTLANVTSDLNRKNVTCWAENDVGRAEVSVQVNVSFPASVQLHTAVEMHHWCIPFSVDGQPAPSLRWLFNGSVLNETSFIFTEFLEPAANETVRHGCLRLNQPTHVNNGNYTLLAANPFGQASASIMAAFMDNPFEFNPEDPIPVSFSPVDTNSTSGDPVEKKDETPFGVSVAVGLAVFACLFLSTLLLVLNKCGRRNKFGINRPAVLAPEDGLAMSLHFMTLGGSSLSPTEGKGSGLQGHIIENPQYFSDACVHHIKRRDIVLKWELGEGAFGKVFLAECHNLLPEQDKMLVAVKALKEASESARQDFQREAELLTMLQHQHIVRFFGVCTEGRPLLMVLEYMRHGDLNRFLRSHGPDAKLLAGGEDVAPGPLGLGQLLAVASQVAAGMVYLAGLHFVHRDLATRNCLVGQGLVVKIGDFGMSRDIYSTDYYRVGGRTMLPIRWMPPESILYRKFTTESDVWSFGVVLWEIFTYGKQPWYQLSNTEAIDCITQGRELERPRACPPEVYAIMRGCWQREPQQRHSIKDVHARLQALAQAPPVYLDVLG

The IC50 is the concentration that gives 50% inhibition. Low values mean inhibition by little substance, high ones a need for much substance. `Fc1cnc2c(c1)[C@H]1CCCN1c1ccc3ncc(n3n1)-c1cc(ccn1)CCO2` [US20260028352, Example I-55]: the IC50 in experiment [1] was < 3 nM.
On the same count and under the same terms, the figure for `Fc1cnc2c(c1)[C@H]1C[C@H](F)CN1c1ccc3ncc(n3n1)-c1cc(ncn1)CCO2` [US20260028352, Example I-72] is < 3 nM; for `Fc1ccc2c(c1)[C@H]1C[C@H](F)CN1c1ccc3ncc(n3n1)-c1cc(ncn1)CCO2` [US20260028352, Example I-70] it is < 3 nM.
Still for that read-out and setting: the figure for `C[C@@H]1Cc2ccnc(c2)-c2cnc3ccc(nn23)N[C@H](C)c2cc(F)ccc2O1` [US20260028352, Example I-34] is < 3 nM.
Consider `C[C@@H]1Cc2ccnc(c2)-c2cnc3ccc(nn23)N[C@H](C)c2cc(F)cnc2O1` [US20260028352, Example I-36], for which the IC50 is < 5 nM in experiment [2] and < 3 nM in experiment [1].
With `Fc1ccc2c(c1)[C@H]1CCCN1c1ccc3ncc(n3n1)-c1cc(ccn1)CCO2` [US20260028352, Example I-53], in experiment [1], the IC50 is < 3 nM.
`C[C@H]1Nc2ccc3ncc(n3n2)-c2cc(ncn2)CCOc2ccc(F)cc21` [US20260028352, Example I-74]: the IC50 in experiment [2] is < 5 nM; in experiment [1] it was < 3 nM.
Take `Fc1cnc2c(c1)[C@H]1C[C@H](F)CN1c1ccc3ncc(n3n1)-c1cc(cnn1)CCO2` [US20260028352, Example I-88]: in experiment [1], the IC50 is < 3 nM.
For `C[C@H]1Nc2ccc3ncc(n3n2)-c2cc(ncn2)COc2ccc(F)cc21` [US20260028352, Example I-78], the IC50 in experiment [2] is < 5 nM; in experiment [1], < 3 nM.
In the case of `C[C@H]1Nc2ccc3ncc(n3n2)-c2nccc(n2)COc2ncc(F)cc21` [US20260028352, Example I-81], the IC50 is < 5 nM in experiment [2] and < 3 nM in experiment [1].
In the case of `C[C@H]1Nc2ccc3ncc(n3n2)-c2cc(ccn2)N2CCC[C@H](C2)Oc2ccc(F)cc21` [US20260028352, Example I-43], the IC50 in experiment [1] is < 3 nM.
As for `Fc1cnc2c(c1)[C@H]1CCCN1c1ccc3ncc(n3n1)-c1cc(ncn1)CO2` [US20260028352, Example I-59], in experiment [1], the IC50 was < 3 nM.
Turning to `C[C@H]1Nc2ccc3ncc(n3n2)-c2cc(ccn2)N2CC[C@H](C2)Oc2ccc(F)cc21` [US20260028352, Example I-41], the IC50 in experiment [1] is < 3 nM.
In the case of `C[C@@H]1Cc2ccnc(c2)-c2cnc3ccc(nn23)N2C[C@@H](F)C[C@@H]2c2cc(F)ccc2O1` [US20260028352, Example I-39], the IC50 was < 5 nM in experiment [2] and < 3 nM in experiment [1].
For the molecule `Fc1ccc2c(c1)[C@H]1CCCN1c1ccc3ncc(n3n1)-c1cc(ccn1)[C@H]1CCC[C@H]1O2` [US20260028352, Example I-45], the results for the IC50 in experiment [2] and in experiment [1] were < 5 nM and < 3 nM, respectively.
Consider `Fc1cnc2c(c1)[C@H]1C[C@H](F)CN1c1ccc3ncc(n3n1)-c1cc(ncn1)CO2` [US20260028352, Example I-52], for which the IC50 in experiment [2] is < 5 nM; in experiment [1] it was < 3 nM.
On to `Fc1ccc2c(c1)[C@H]1C[C@H](F)CN1c1ccc3ncc(n3n1)-c1cc(ccn1)CO2` [US20260028352, Example I-50], for which the IC50 in experiment [1] was < 3 nM.
For the molecule `Fc1cnc2c(c1)[C@H]1C[C@H](F)CN1c1ccc3ncc(n3n1)-c1cc(ccn1)CCO2` [US20260028352, Example I-54], the IC50 in experiment [1] is < 3 nM.
The same measure, in the same setting: the figure for `Fc1cnc2c(c1)[C@H]1CCCN1c1ccc3ncc(n3n1)-c1cc(ccn1)CO2` [US20260028352, Example I-51] is < 3 nM.
Regarding `Fc1cnc2c(c1)[C@H]1CCCN1c1ccc3ncc(n3n1)-c1cc(cnn1)CO2` [US20260028352, Example I-67], in experiment [1], the IC50 was < 3 nM.
On to `Fc1ccc2c(c1)[C@H]1CCCN1c1ccc3ncc(n3n1)-c1cc(cnn1)CO2` [US20260028352, Example I-65], for which the IC50 in experiment [2] is < 5 nM; in experiment [1], < 3 nM.
Take `C[C@@H]1Cc2ccnc(c2)-c2cnc3ccc(nn23)N2CCC[C@@H]2c2cc(F)cnc2O1` [US20260028352, Example I-38]: in experiment [1], the IC50 was < 3 nM.
The same measure, in the same setting: the value for `Fc1cnc2c(c1)[C@H]1CCCN1c1ccc3ncc(n3n1)-c1cc(ncn1)CCO2` [US20260028352, Example I-71] was < 3 nM; that for `Fc1ccc2c(c1)[C@H]1C[C@H](F)CN1c1ccc3ncc(n3n1)-c1cc(cnn1)CCO2` [US20260028352, Example I-86] was < 3 nM.
For the molecule `Fc1ccc2c(c1)[C@H]1C[C@H](F)CN1c1ccc3ncc(n3n1)-c1cc(ccn1)CCO2` [US20260028352, Example I-56], in experiment [1], the IC50 is < 3 nM.
In the case of `Fc1ccc2c(c1)[C@H]1C[C@H](F)CN1c1ccc3ncc(n3n1)-c1nccc(n1)CCO2` [US20260028352, Example I-93], the IC50 in experiment [1] was < 3 nM.
`C[C@H]1Nc2ccc3ncc(n3n2)-c2cc(ncn2)CCOc2ccccc21` [US20260028352, Example I-32]: the IC50 is < 5 nM in experiment [2] and < 3 nM in experiment [1].
On the same counts, the results for `C[C@H]1Nc2ccc3ncc(n3n2)-c2cc(ccn2)CCOc2ccc(F)cc21` [US20260028352, Example I-76] are < 5 nM and < 3 nM.
As for `Fc1cnc2c(c1)[C@H]1C[C@H](F)CN1c1ccc3ncc(n3n1)-c1cc(cnn1)CO2` [US20260028352, Example I-62], the IC50 in experiment [2] was < 5 nM; in experiment [1], < 3 nM.
Consider `Fc1cnc2c(c1)[C@H]1C[C@H](F)CN1c1ccc3ncc(n3n1)-c1cc(ccn1)CO2` [US20260028352, Example I-60], for which the half-inhibitory concentration (IC50) in experiment [1] is < 3 nM.
Turning to `Fc1ccc2c(c1)[C@H]1C[C@H](F)CN1c1ccc3ncc(n3n1)-c1cc(cnn1)CO2` [US20260028352, Example I-68], the IC50 in experiment [1] is < 3 nM.
In the case of `C[C@H]1Nc2ccc3ncc(n3n2)-c2cc(ccn2)N2CCC[C@@H](C2)Oc2ccc(F)cc21` [US20260028352, Example I-44], the IC50 was < 5 nM in experiment [2] and < 3 nM in experiment [1].
`Fc1cnc2c(c1)[C@H]1CCCN1c1ccc3ncc(n3n1)-c1nccc(n1)CCO2` [US20260028352, Example I-94]: the IC50 in experiment [1] was < 3 nM.
On the same count and under the same terms, the figure for `CC1(C)Nc2ccc3ncc(n3n2)-c2cc(ccn2)COc2ccc(F)cc21` [US20260028352, Example I-48] is < 3 nM; for `C[C@H]1Nc2ccc3ncc(n3n2)-c2cc(ccn2)CCOc2ncc(F)cc21` [US20260028352, Example I-75] it is < 3 nM.
On the same count and under the same terms, the figure for `C[C@H]1Nc2ccc3ncc(n3n2)-c2cc(ccn2)N2CC[C@@H](C2)Oc2ccc(F)cc21` [US20260028352, Example I-42] is < 3 nM; for `Fc1cnc2c(c1)[C@H]1C[C@H](F)CN1c1ccc3ncc(n3n1)-c1nccc(n1)CO2` [US20260028352, Example I-64] it is < 3 nM.
In the case of `Fc1ccc2c(c1)C1(CC1)Nc1ccc3ncc(n3n1)-c1cc(ccn1)CO2` [US20260028352, Example I-47], the IC50 in experiment [2] was < 5 nM; in experiment [1], < 3 nM.
On to `C[C@H]1Nc2ccc3ncc(n3n2)-c2cc(ncn2)CCOc2ncc(F)cc21` [US20260028352, Example I-73], for which the 50% inhibitory concentration (IC50) is < 5 nM in experiment [2] and < 3 nM in experiment [1].
As to `C[C@H]1Nc2ccc3ncc(n3n2)-c2nccc(n2)CCOc2ncc(F)cc21` [US20260028352, Example I-83], the IC50 in experiment [1] was < 3 nM.
Same read-out and setting: the figure for `Fc1cnc2c(c1)[C@H]1CCCN1c1ccc3ncc(n3n1)-c1nccc(n1)CO2` [US20260028352, Example I-63] is < 3 nM.
With `Fc1cnc2c(c1)[C@H]1CCCN1c1ccc3ncc(n3n1)-c1cc(cnn1)CCO2` [US20260028352, Example I-87], the IC50 is < 5 nM in experiment [2] and < 3 nM in experiment [1].
For `Fc1ccc2c(c1)[C@H]1CCCN1c1ccc3ncc(n3n1)-c1cc(cnn1)CCO2` [US20260028352, Example I-85] the same measures were < 5 nM and < 3 nM.
Take `C[C@H]1Nc2ccc3ncc(n3n2)-c2cc(cnn2)COc2ncc(F)cc21` [US20260028352, Example I-79]: the IC50 in experiment [2] is < 5 nM; in experiment [1], < 3 nM.
For `C[C@@H]1Cc2ccnc(c2)-c2cnc3ccc(nn23)N2CCC[C@@H]2c2cc(F)ccc2O1` [US20260028352, Example I-37] the same measures were < 5 nM and < 3 nM.
Take `C[C@H]1Nc2ccc3ncc(n3n2)-c2nccc(n2)CCOc2ccc(F)cc21` [US20260028352, Example I-84]: the IC50 in experiment [1] is < 3 nM.
Still for that read-out and setting: the figure for `Fc1ccc2c(c1)[C@H]1CCCN1c1ccc3ncc(n3n1)-c1nccc(n1)CCO2` [US20260028352, Example I-92] is < 3 nM.
Take `C[C@H]1Nc2ccc3ncc(n3n2)-c2nccc(n2)COc2ccc(F)cc21` [US20260028352, Example I-80]: the IC50 in experiment [1] is < 3 nM.
Still for that read-out and setting: the figure for `Fc1ccc2c(c1)[C@H]1CCCN1c1ccc3ncc(n3n1)-c1cc(ncn1)CO2` [US20260028352, Example I-69] is < 3 nM; for `C[C@H]1Nc2ccc3ncc(n3n2)-c2cc(ncn2)COc2ncc(F)cc21` [US20260028352, Example I-77] it is < 3 nM.
Consider `C[C@H]1Nc2ccc3ncc(n3n2)-c2cc(cnn2)COc2ccc(F)cc21` [US20260028352, Example I-82], for which the IC50 is < 5 nM in experiment [2] and < 3 nM in experiment [1].
As to `C[C@@H]1Cc2ccnc(c2)-c2cnc3ccc(nn23)N2C[C@@H](F)C[C@@H]2c2cc(F)cnc2O1` [US20260028352, Example I-40], in experiment [1], the IC50 is < 3 nM.
The same measure, in the same setting: the value for `Fc1ccc2c(c1)[C@H]1C[C@H](F)CN1c1ccc3ncc(n3n1)-c1cc(ncn1)CO2` [US20260028352, Example I-58] was < 3 nM.
